In patent US8466176B2 (priority 2008, dated 2013):

Assay: logP(HCOOH) reported with HPLC/MS
[1] = method [b]: LC-MS at pH 2.7, 0.1% formic acid in water and acetonitrile, linear gradient 10% to 95% acetonitrile
[2] = method [a]: HPLC on reversed phase columns, pH 2.3 with 0.1% phosphoric acid and acetonitrile as eluent
[3] = method [b]: LC-MS, pH 2.7 with 0.1% formic acid in water and acetonitrile (0.1% formic acid), linear gradient 10% to 95% acetonitrile
[4] = method [b]: LC-MS at pH 2.7 with 0.1% formic acid in water and acetonitrile (0.1% formic acid), linear gradient 10% to 95% acetonitrile
[5] = HCOOH (formic acid), logP(HCOOH), HPLC/MS

## CCCCCCCCNC(=S)Nc1cccc(CON=C(c2ccccc2)n2nnnc2C)n1 [Example 6]
[1]
  log p: 4.97^[b]

## Cn1nnnc1C(=NOCc1cccc(NC/C=C/C#CC(C)(C)C)n1)c1ccccc1 [Example 158]
[2]
  log p: 3.25^[a]

## Cn1nnnc1C(=NOCc1cccc(C#CCN2CCOCC2)n1)c1ccccc1 [Example 242]
[3]
  log p: 1.44^[b]

## CCCCCC#Cc1nc(CON=C(c2ccccc2)n2nnnc2C)cs1 [Example 167]
[3]
  log p: 4.92^[b]

## Cn1nnnc1C(=NOCc1cccc(C#CCC2CCCCC2)n1)c1ccccc1 [Example 213]
[3]
  log p: 5.17^[b]

## CCCCCC#Cc1nc(CON=C(c2cccc(F)c2)c2nnnn2C)cs1 [Example 152]
[3]
  log p: 4.94^[b]

## Cc1sc(C#CCCc2ccccc2)nc1CON=C(c1ccccc1)c1nnnn1C [Example 187]
[3]
  log p: 4.65^[b]

## Cn1nnnc1C(=NOCc1csc(Br)n1)c1cccc(F)c1 [Example 146]
[3]
  log p: 3.23^[b]

## CCCCOC(=O)NCc1cccc(CON=C(c2ccccc2)c2nnnn2C)n1 [Example 63]
[1]
  log p: 3.19^[b]

## CCCc1ccc(C#Cc2cccc(CON=C(c3ccccc3)c3nnnn3C)n2)cc1 [Example 244]
[3]
  log p: 5.23^[b]

## Cn1nnnc1C(=NOCc1cccc(C#Cc2ccccc2C(F)(F)F)n1)c1ccccc1 [Example 219]
[3]
  log p: 4.44^[b]

## CSc1cccc(C(=NOCc2cccc(NCC3CCCCC3)n2)c2nnnn2C)c1 [Example 292]
[4]
  log p: 3.02^[b]

## Cn1nnnc1C(=NOCc1cccc(NOCCc2ccccc2)n1)c1ccccc1 [Example 287]
[4]
  log p: 3.69^[b]

## Cn1nnnc1C(=NOCc1cccc(C#Cc2ccc(-c3ccccc3)cc2)n1)c1ccccc1 [Example 216]
[3]
  log p: 5.11^[b]

## CC(C)NC(=O)c1cccc(CON=C(c2ccccc2)c2nnnn2C)n1 [Example 84]
[1]
  log p: 2.84^[b]

## Cn1nnnc1C(=NOCc1cccc(NCC2CC2(F)F)n1)c1ccccc1 (stereo not drawn) [Example 179]
[2]
  log p: 2.17^[a]

## CCCCC(=O)NCc1cccc(CON=C(c2ccccc2)c2nnnn2C)n1 [Example 57]
[1]
  log p: 2.56^[b]

## Cn1nnnc1C(=NOCc1cccc(C#Cc2cccc(C#N)c2)n1)c1ccccc1 [Example 225]
[3]
  log p: 3.69^[b]

## Cc1nnnn1C(=NOCc1cccc(NC(=S)NCc2ccccc2)n1)c1ccccc1 [Example 10]
[1]
  log p: 3.52^[b]

## Cn1nnnc1C(=NOCc1csc(C#CCCCCl)n1)c1ccccc1 [Example 193]
[3]
  log p: 3.8^[b]

## Cn1nnnc1C(=NOCc1nc(C#CCCCCl)ccc1F)c1ccccc1 [Example 105]
[1]
  log p: 3.87^[b]

## Cn1nnnc1C(=NOCc1csc(C#C[Si](C)(C)C)n1)c1ccccc1 [Example 138]
[2]
  log p: 4.59^[a]

## C=CCNC(=S)Nc1cccc(CON=C(c2ccccc2)n2nnnc2C)n1 [Example 11]
[1]
  log p: 3.09^[b]

## Cn1nnnc1C(=NOCc1cccc(N(OCc2ccccc2)C(=O)OC(C)(C)C)n1)c1ccccc1 [Example 282]
[4]
  log p: 4.65^[b]

## CCCCC#Cc1nc(CON=C(c2ccccc2)n2nnnc2C)cs1 [Example 164]
[3]
  log p: 4.49^[b]

## Cn1nnnc1C(=NOCc1cccc(C#Cc2ccc(C#N)cc2)n1)c1ccccc1 [Example 224]
[3]
  log p: 3.69^[b]

## CC(C)(C)OC(=O)Nc1cccc(Br)n1 [tert-butyl (6-bromopyridin-2-yl)carbamate]
logP(HCOOH), HPLC/MS
  chromatographic logP: 4.11

## Cc1nnnn1C(=NOCc1cccc(C(=O)O)n1)c1ccccc1 [Example 15]
[1]
  log p: 1.97^[b]

## CCCCOc1ccc(C#Cc2cccc(CON=C(c3ccccc3)c3nnnn3C)n2)cc1 [Example 226]
[3]
  log p: 5.29^[b]

## Cc1nnnn1C(=NOCc1csc(C#CCC2CCCC2)n1)c1ccccc1 [Example 170]
[3]
  log p: 4.97^[b]

## Cc1cccc(NC(=O)C(C)(C)C)[n+]1[O-] [2,2-dimethyl-N-(6-methyl-1-oxidopyridin-2-yl)propanamide]
[5]
  chromatographic logP: 1.5

## Cn1nnnc1C(=NOCc1csc(C#Cc2ccc3ccccc3c2)n1)c1ccccc1 [Example 194]
[3]
  log p: 4.92^[b]

## Cn1nnnc1C(=NOCc1cccc(N(OCC2CCCCC2)C(=O)OC(C)(C)C)n1)c1ccccc1 [Example 283]
[4]
  log p: 6.25[b]

## CCCCCCNc1cccc(CON=C(c2cccc(N(C)C)c2)c2nnnn2C)n1 [Example 311]
Reversed phase HPLC column, pH 2.7, log p, method [b]: LC-MS at pH 2.7 with 0.1% formic acid in water and acetonitrile (0.1% formic acid), linear gradient 10% to 95% acetonitrile
  chromatographic logP: 2.44

## Cn1nnnc1C(=NOCc1cccc(C#Cc2cccc(OC(F)(F)F)c2)n1)c1ccccc1 [Example 249]
[3]
  log p: 4.75^[b]

## Cn1nnnc1C(=NOCc1cccc(C#CCC2CCC2)n1)c1ccccc1 [Example 111]
[1]
  log p: 4.39^[b]

## C#Cc1nc(CON=C(c2cccc(F)c2)c2nnnn2C)cs1 [Example 157]
[3]
  log p: 2.88^[b]

## Cc1nnnn1C(=NOCc1csc(C#CCCCc2ccccc2)n1)c1ccccc1 [Example 166]
[3]
  log p: 4.84^[b]

## Cn1nnnc1C(=NOCc1cccc(C#Cc2ccc(OC(F)(F)F)cc2)n1)c1ccccc1 [Example 220]
[3]
  log p: 4.75^[b]

## Cc1nnnn1C(=NOCc1cccc(N=CNC#N)n1)c1ccccc1 [Example 1]
[1]
  log p: 2.22^[b]

## CCSCC#Cc1ccc(F)c(CON=C(c2ccccc2)c2nnnn2C)n1 [Example 102]
[1]
  log p: 3.85^[b]

## Cn1nnnc1C(=NOCc1nc(C#CCCC2CCCCC2)ccc1F)c1ccccc1 [Example 107]
[1]
  log p: 5.68^[b]

## CCSCC#Cc1nc(CON=C(c2ccccc2)c2nnnn2C)cs1 [Example 199]
[3]
  log p: 3.78^[b]

## CCOc1ccc(C#Cc2nc(CON=C(c3cccc(F)c3)c3nnnn3C)cs2)cc1 [Example 294]
[4]
  log p: 4.62^[b]

## COc1ccc(CON=C(c2ccccc2)c2nnnn2C)nc1C#CCOc1ccccc1 [Example 131]
[1]
  log p: 3.8^[b]

## CN(C)c1cccc(C(=NOCc2cccc(N3C(=O)c4ccccc4C3=O)n2)c2nnnn2C)c1 [2-(6-{[({[3-(dimethylamino)phenyl](1-methyl-1H-tetrazol-5-yl)methylene}amino)oxy]methyl}pyridin-2-yl)-1H-isoindole-1,3(2H)-dione]
[5]
  chromatographic logP: 3.17

## Cn1nnnc1C(=NOCc1cccc(C#CCC2CCCC2)n1)c1ccccc1 [Example 236]
[3]
  log p: 4.78^[b]

## Cn1nnnc1C(=NOCc1csc(C#CCCCc2ccccc2)n1)c1cccc(F)c1 [Example 150]
[3]
  log p: 4.89^[b]

## Cn1nnnc1C(=NOCc1cccc(C#CCc2ccccc2)n1)c1ccccc1 [Example 238]
[3]
  log p: 4.09^[b]

## Cn1nnnc1C(=NOCc1cccc(NCC2CC2)n1)c1cccc(F)c1 [Example 290]
[4]
  log p: 1.98^[b]

## CSc1cccc(C(=NOCc2cccc(N(CCC3CCCCC3)C(=O)OC(C)(C)C)n2)c2nnnn2C)c1 [tert-butyl (2-cyclohexylethyl)(6-{[({[3-(methylsulfanyl)phenyl](1-methyl-1H-tetrazol-5-yl)methylene}-amino)oxy]methyl}pyridin-2-yl)carbamate]
[5]
  chromatographic logP: 6.83

## Cn1nnnc1C(=NOCc1nc(C#CCCCC#N)ccc1F)c1ccccc1 [Example 103]
[1]
  log p: 3.11^[b]

## Cn1nnnc1C(=NOCc1cccc(C#Cc2ccc(N3CCCCC3)cc2)n1)c1ccccc1 [Example 232]
[3]
  log p: 4.81^[b]

## Cn1nnnc1C(=NOCc1cccc(C=NO)n1)c1ccccc1 [Example 177, N-({6-[(hydroxyimino)methyl]pyridin-2-yl}methoxy)-1-(1-methyl-1H-tetrazol-5-yl)-1-phenylmethanimine]
[5]
  chromatographic logP: 2.16
Reversed phase HPLC columns, pH 2.3, log p, method [a]: HPLC on reversed phase columns, pH 2.3 with 0.1% phosphoric acid and acetonitrile as eluent
  chromatographic logP: 2.16

## Cn1nnnc1C(=NOCc1cccc(NC2CC3CCC2C3)n1)c1ccccc1 (stereo not drawn) [Example 300]
[4]
  log p: 2.45^[b]

## Cn1nnnc1C(=NOCc1cccc(C#CCCCCl)n1)c1ccccc1 [Example 212]
[3]
  log p: 3.71^[b]

## Cn1nnnc1C(=NOCc1cccc(NC(=O)SC(C)(C)C)n1)c1ccccc1 [Example 309]
[4]
  log p: 4.19^[b]

## CCCCCCN(C=O)c1cccc(C)[n+]1[O-] [N-hexyl-N-(6-methyl-1-oxidopyridin-2-yl)formamide]
[5]
  chromatographic logP: 1.82

## CCCCC#Cc1nc(CON=C(c2ccccc2)c2nnnn2C)ccc1OC [Example 127]
[1]
  log p: 3.96^[b]

## COc1ccc(CON=C(c2ccccc2)c2nnnn2C)nc1C#CCCCC#N [Example 135]
[3]
  log p: 2.82^[b]

## Cn1nnnc1C(=NOCc1nc(C#CC2CCCCC2)ccc1F)c1ccccc1 [Example 108]
[1]
  log p: 4.92^[b]

## Cn1nnnc1C(=NOCc1cccc(NCC2CC2(Cl)Cl)n1)c1ccccc1 (stereo not drawn) [Example 205]
[3]
  log p: 2.75^[b]

## Cn1nnnc1C(=NOCc1cccc(C#CCOCc2ccccc2)n1)c1ccccc1 [Example 255]
[3]
  log p: 3.96^[b]

## Cn1nnnc1C(=NOCc1cccc(CN)n1)c1ccccc1 [Example 52, 1-{6-[({[(1-methyl-1H-tetrazol-5-yl)(phenyl)methylene]amino}oxy)methyl]pyridin-2-yl}methanamine]
HPLC, logP(HCOOH), HPLC/MS
  chromatographic logP: 1.23
Reversed phase HPLC column, pH 2.7, log p, method [b]: LC-MS at pH 2.7, 0.1% formic acid in water and acetonitrile, linear gradient 10% to 95% acetonitrile
  chromatographic logP: 1.23

## Cn1nnnc1C(=NOCc1cccc(C#Cc2ccc(Cl)cc2)n1)c1ccccc1 [Example 250]
[3]
  log p: 4.54^[b]

## CC(C)CSC(=O)Nc1cccc(CON=C(c2ccccc2)c2nnnn2C)n1 [Example 308]
[4]
  log p: 4.21^[b]

## Cn1nnnc1C(=NOCc1cccc(NCCOC2CCCCC2)n1)c1ccccc1 [Example 203]
[3]
  log p: 2.35^[b]

## CCSCC#Cc1cccc(CON=C(c2ccccc2)c2nnnn2C)n1 [Example 243]
[3]
  log p: 3.69^[b]

## Cc1sc(Br)nc1CBr [2-bromo-4-(bromomethyl)-5-methyl-1,3-thiazole]
HPLC, logP(HCOOH), HPLC/MS
  chromatographic logP: 2.64

## CC(=O)N(CCC1CCCCC1)c1cccc(CON=C(c2ccccc2)c2nnnn2C)n1 [Example 76]
[1]
  log p: 4.16^[b]
